Data reported in paper PMC9150124, “Design of a Potent, Selective, and Brain-Penetrant Inhibitor of Wnt-Deactivating Enzyme Notum by Optimization of a Crystallographic Fragment Hit” (Journal of Medicinal Chemistry, 2022).

Assays:
Assay in all cases: SelectScreen kinase profiling, SSBK ZLyte SP Technology
Format in all cases: biochemical
[1] = target: kinase named in conditions (Homo sapiens, UniProt O14920); conditions: IKBKB (IKK beta), 10 μM
Experimental: (§1) Kinase selectivity screening was performed by Thermo Fisher Scientific (Paisley, U.K.) in their SelectScreen Biochemical Kinase Profiling Service. Assay information and data are presented in the Supporting Information.
(§2) Kinase selectivity screening was performed by ThermoFisher Scientific (Paisley, U.K.) in their SelectScreenTM
(§3) Biochemical Kinase Profiling service .

[2] = target: kinase named in conditions (Homo sapiens, UniProt O14965); conditions: AURKA (Aurora A), 10 μM
Experimental: as §1, §2, §3

[3] = target: kinase named in conditions (Homo sapiens, UniProt O15146); conditions: MUSK, 10 μM
Experimental: as §1, §2, §3

[4] = target: kinase named in conditions (Homo sapiens, UniProt O96013); conditions: PAK4, 10 μM
Experimental: as §1, §2, §3

[5] = target: kinase named in conditions (Homo sapiens, UniProt P00519); conditions: ABL1, 10 μM
Experimental: as §1, §2, §3

[6] = target: kinase named in conditions (Homo sapiens, UniProt P00519, E255K); conditions: ABL1 E255K, 10 μM
Experimental: as §1, §2, §3

[7] = target: kinase named in conditions (Homo sapiens, UniProt P00519, Y253F); conditions: ABL1 Y253F, 10 μM
Experimental: as §1, §2, §3

[8] = target: kinase named in conditions (Homo sapiens, UniProt P00533, L858R); conditions: EGFR (ErbB1) L858R, 10 μM
Experimental: as §1, §2, §3

[9] = target: kinase named in conditions (Homo sapiens, UniProt P00533, L861Q); conditions: EGFR (ErbB1) L861Q, 10 μM
Experimental: as §1, §2, §3

[10] = target: kinase named in conditions (Homo sapiens, UniProt P07333); conditions: CSF1R (FMS), 10 μM
Experimental: as §1, §2, §3

[11] = target: kinase named in conditions (Homo sapiens, UniProt P07947); conditions: YES1, 10 μM
Experimental: as §1, §2, §3

[12] = target: kinase named in conditions (Homo sapiens, UniProt P11309); conditions: PIM1, 10 μM
Experimental: as §1, §2, §3

[13] = target: kinase named in conditions (Homo sapiens, UniProt P16234); conditions: PDGFRA (PDGFR alpha), 10 μM
Experimental: as §1, §2, §3

[14] = target: kinase named in conditions (Homo sapiens, UniProt P17612); conditions: PRKACA (PKA), 10 μM
Experimental: as §1, §2, §3

[15] = target: kinase named in conditions (Homo sapiens, UniProt P21709); conditions: EPHA1, 10 μM
Experimental: as §1, §2, §3

[16] = target: kinase named in conditions (Homo sapiens, UniProt P21802, N549H); conditions: FGFR2 N549H, 10 μM
Experimental: as §1, §2, §3

[17] = target: kinase named in conditions (Homo sapiens, UniProt P36888, D835Y); conditions: FLT3 D835Y, 10 μM
Experimental: as §1, §2, §3

[18] = target: kinase named in conditions (Homo sapiens, UniProt P41240); conditions: CSK, 10 μM
Experimental: as §1, §2, §3

[19] = target: kinase named in conditions (Homo sapiens, UniProt P48730); conditions: CSNK1D (CK1 delta), 10 μM
Experimental: as §1, §2, §3

[20] = target: kinase named in conditions (Homo sapiens, UniProt P49674, R178C); conditions: CSNK1E (CK1 epsilon) R178C, 10 μM
Experimental: as §1, §2, §3

[21] = target: kinase named in conditions (Homo sapiens, UniProt P49841); conditions: GSK3B (GSK3 beta), 10 μM
Experimental: as §1, §2, §3

[22] = target: kinase named in conditions (Homo sapiens, UniProt P51451); conditions: BLK, 10 μM
Experimental: as §1, §2, §3

[23] = target: kinase named in conditions (Homo sapiens, UniProt P51812); conditions: RPS6KA3 (RSK2), 10 μM
Experimental: as §1, §2, §3

[24] = target: kinase named in conditions (Homo sapiens, UniProt P51817); conditions: PRKX, 10 μM
Experimental: as §1, §2, §3

[25] = target: kinase named in conditions (Homo sapiens, UniProt P54762); conditions: EPHB1, 10 μM
Experimental: as §1, §2, §3

[26] = target: kinase named in conditions (Homo sapiens, UniProt P80192); conditions: MAP3K9 (MLK1), 10 μM
Experimental: as §1, §2, §3

[27] = target: kinase named in conditions (Homo sapiens, UniProt Q13164); conditions: MAPK7 (ERK5), 10 μM
Experimental: as §1, §2, §3

[28] = target: kinase named in conditions (Homo sapiens, UniProt Q13177); conditions: PAK2 (PAK65), 10 μM
Experimental: as §1, §2, §3

[29] = target: kinase named in conditions (Homo sapiens, UniProt Q15759); conditions: MAPK11 (p38 beta), 10 μM
Experimental: as §1, §2, §3

[30] = target: kinase named in conditions (Homo sapiens, UniProt Q16816); conditions: PHKG1, 10 μM
Experimental: as §1, §2, §3

[31] = target: kinase named in conditions (Homo sapiens, UniProt Q7KZI7); conditions: MARK2, 10 μM
Experimental: as §1, §2, §3

[32] = target: kinase named in conditions (Homo sapiens, UniProt Q96PF2); conditions: STK22B (TSSK2), 10 μM
Experimental: as §1, §2, §3

[33] = target: kinase named in conditions (Homo sapiens, UniProt Q9H2X6); conditions: HIPK2, 10 μM
Experimental: as §1, §2, §3

[34] = target: kinase named in conditions (Homo sapiens, UniProt Q9Y6M4); conditions: CSNK1G3 (CK1 gamma 3), 10 μM
Experimental: as §1, §2, §3

kinase named in conditions (Homo sapiens, UniProt P11309), sequence (P11309 whole entry): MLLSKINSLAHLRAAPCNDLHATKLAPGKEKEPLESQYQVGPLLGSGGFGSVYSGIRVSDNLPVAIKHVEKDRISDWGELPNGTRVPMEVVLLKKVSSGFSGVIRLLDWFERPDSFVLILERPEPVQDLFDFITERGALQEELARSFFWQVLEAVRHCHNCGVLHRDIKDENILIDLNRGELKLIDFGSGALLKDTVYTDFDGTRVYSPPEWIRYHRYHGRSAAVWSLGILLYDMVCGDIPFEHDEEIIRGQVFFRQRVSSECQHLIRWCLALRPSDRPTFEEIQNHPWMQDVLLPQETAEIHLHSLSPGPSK
kinase named in conditions (Homo sapiens, UniProt P07947), sequence (P07947 whole entry): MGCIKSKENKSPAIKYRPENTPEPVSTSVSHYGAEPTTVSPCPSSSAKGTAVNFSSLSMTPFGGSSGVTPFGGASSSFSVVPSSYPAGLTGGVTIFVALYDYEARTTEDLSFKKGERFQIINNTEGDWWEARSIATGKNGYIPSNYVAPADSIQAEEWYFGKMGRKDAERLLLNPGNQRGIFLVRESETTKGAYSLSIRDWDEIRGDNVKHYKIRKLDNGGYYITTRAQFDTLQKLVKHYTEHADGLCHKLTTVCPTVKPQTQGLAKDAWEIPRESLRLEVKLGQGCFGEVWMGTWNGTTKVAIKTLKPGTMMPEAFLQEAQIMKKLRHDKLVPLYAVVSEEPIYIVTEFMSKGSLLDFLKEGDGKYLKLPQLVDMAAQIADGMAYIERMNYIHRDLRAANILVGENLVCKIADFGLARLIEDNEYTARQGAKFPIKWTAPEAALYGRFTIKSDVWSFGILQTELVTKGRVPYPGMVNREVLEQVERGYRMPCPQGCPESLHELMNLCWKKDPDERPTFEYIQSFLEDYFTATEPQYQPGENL
kinase named in conditions (Homo sapiens, UniProt P16234), sequence (P16234 24-1089): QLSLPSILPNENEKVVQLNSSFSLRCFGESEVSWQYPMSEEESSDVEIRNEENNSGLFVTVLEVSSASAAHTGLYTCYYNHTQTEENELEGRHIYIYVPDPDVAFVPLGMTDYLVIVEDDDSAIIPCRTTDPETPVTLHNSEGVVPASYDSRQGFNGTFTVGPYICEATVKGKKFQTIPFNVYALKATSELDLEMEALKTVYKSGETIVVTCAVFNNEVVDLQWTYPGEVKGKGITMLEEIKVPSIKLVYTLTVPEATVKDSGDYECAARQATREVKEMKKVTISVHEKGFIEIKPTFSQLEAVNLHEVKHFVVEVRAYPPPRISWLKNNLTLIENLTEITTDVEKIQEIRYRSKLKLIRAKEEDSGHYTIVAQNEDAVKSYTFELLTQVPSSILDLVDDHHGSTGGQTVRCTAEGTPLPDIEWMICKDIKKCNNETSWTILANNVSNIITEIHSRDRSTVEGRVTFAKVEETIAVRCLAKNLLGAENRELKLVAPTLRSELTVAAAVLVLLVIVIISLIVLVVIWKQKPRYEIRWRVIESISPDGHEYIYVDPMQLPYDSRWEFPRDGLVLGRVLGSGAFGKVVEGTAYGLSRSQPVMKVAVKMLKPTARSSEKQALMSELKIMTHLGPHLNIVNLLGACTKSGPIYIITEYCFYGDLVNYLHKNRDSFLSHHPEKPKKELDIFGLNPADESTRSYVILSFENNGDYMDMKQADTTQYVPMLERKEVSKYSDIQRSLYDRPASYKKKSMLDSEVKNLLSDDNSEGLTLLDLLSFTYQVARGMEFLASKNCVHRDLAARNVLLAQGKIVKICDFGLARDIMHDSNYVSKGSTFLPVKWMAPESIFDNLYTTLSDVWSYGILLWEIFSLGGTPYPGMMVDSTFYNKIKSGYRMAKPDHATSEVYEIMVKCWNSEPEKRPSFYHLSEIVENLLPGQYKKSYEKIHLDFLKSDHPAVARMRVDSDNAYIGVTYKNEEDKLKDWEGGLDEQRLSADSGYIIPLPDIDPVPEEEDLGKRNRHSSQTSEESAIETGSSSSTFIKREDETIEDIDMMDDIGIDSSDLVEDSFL
kinase named in conditions (Homo sapiens, UniProt Q13177), sequence (Q13177 whole entry): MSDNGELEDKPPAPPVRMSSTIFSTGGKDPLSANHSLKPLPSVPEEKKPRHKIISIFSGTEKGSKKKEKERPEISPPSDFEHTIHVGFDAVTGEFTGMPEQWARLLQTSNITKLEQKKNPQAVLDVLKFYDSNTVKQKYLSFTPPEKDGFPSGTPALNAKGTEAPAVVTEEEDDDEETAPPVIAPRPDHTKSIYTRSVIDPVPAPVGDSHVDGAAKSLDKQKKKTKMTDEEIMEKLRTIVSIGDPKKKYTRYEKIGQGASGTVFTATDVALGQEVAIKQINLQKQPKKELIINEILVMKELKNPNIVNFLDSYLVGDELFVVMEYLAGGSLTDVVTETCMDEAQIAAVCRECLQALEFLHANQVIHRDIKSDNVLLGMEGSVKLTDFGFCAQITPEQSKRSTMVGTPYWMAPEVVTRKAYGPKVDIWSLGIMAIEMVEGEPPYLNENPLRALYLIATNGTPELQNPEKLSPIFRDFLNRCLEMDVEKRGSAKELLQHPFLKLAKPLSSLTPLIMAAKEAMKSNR
kinase named in conditions (Homo sapiens, UniProt Q96PF2), sequence (Q96PF2 whole entry): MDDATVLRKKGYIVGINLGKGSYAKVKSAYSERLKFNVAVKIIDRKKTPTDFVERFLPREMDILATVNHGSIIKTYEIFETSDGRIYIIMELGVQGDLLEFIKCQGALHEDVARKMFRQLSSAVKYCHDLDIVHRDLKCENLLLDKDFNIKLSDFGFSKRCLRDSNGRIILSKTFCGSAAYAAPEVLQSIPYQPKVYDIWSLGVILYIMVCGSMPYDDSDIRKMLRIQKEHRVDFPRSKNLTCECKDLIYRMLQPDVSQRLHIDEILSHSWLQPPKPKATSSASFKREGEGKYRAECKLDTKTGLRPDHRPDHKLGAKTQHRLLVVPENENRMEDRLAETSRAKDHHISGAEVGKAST
kinase named in conditions (Homo sapiens, UniProt P49674, R178C), sequence (P49674 whole entry R178C): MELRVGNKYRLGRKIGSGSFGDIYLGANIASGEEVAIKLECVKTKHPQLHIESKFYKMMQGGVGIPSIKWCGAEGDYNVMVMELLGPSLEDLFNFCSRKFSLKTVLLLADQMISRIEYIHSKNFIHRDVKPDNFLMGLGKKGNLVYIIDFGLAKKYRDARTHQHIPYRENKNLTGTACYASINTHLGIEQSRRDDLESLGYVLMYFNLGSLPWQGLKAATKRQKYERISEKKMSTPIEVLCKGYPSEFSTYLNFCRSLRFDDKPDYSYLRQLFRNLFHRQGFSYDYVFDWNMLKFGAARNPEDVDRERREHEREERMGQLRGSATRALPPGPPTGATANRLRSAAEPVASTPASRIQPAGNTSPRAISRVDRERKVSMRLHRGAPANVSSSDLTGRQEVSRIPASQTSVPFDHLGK
kinase named in conditions (Homo sapiens, UniProt Q9H2X6), sequence (Q9H2X6 whole entry): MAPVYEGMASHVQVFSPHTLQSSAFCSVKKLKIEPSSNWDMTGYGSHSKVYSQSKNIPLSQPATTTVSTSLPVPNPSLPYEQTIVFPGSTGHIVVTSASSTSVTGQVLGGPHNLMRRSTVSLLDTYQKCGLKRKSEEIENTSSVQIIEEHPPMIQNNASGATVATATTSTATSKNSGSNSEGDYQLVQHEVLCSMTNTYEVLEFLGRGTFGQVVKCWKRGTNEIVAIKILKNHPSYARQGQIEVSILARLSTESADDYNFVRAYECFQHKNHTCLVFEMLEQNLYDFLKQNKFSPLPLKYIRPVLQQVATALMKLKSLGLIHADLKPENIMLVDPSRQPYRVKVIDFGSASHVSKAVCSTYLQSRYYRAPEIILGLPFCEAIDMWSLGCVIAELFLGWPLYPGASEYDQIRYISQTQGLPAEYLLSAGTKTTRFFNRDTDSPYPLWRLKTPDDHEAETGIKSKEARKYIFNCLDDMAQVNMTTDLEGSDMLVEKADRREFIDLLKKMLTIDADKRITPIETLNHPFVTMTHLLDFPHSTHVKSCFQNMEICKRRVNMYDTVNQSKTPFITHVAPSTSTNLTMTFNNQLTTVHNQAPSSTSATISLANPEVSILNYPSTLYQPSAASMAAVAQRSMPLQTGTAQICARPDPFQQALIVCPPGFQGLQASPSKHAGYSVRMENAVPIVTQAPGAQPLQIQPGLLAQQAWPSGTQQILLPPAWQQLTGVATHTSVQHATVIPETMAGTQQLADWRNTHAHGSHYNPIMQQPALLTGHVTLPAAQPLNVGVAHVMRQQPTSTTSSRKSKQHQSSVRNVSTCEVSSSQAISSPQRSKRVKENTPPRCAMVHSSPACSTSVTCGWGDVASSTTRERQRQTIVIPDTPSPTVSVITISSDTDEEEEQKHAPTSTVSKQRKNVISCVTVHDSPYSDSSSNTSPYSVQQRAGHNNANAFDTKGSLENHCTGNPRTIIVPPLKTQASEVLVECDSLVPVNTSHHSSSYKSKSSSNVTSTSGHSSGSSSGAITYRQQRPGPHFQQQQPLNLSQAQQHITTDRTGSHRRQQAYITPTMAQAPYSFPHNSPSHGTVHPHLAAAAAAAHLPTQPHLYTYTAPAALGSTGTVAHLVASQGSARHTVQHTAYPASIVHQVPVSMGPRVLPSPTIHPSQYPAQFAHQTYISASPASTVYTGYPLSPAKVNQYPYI
kinase named in conditions (Homo sapiens, UniProt Q15759), sequence (Q15759 whole entry): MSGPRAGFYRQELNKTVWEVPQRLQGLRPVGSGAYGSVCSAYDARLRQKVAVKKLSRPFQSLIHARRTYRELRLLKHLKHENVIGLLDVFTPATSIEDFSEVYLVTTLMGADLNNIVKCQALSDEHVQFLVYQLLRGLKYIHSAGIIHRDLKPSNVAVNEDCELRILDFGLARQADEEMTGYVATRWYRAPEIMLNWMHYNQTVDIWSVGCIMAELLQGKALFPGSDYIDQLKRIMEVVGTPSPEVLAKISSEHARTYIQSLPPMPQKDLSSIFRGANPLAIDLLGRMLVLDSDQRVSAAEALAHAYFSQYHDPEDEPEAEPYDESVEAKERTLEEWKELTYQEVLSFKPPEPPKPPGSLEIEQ

With `FC(F)(F)c1c(Cl)ccc(-n2ccnn2)c1Cl` [8l, 1-(2,4-Dichloro-3-(trifluoromethyl)phenyl)-1H-1,2,3-triazole] the inhibition at 10 µM [1] was -1%, the inhibition at 10 µM [2] was 4% and the inhibition at 10 µM [3] was -4%. For the same compound, the inhibition at 10 µM [4] was 2%, the inhibition at 10 µM [5] was 19% and the inhibition at 10 µM [6] was 13%. For the same compound, the inhibition at 10 µM [7] was 13%, the inhibition at 10 µM [8] was 2% and the inhibition at 10 µM [9] was 0%. The inhibition at 10 µM [10] was 6%, the inhibition at 10 µM [11] was 3% and the inhibition at 10 µM [12] was 6%. For the same compound, the inhibition at 10 µM [13] was 13%, the inhibition at 10 µM [14] was 0% and the inhibition at 10 µM [15] was 4%. For the same compound, the inhibition at 10 µM [16] was 17%, the inhibition at 10 µM [17] was 3% and the inhibition at 10 µM [18] was 2%. For the same compound, the inhibition at 10 µM [19] was 3%, the inhibition at 10 µM [20] was -3% and the inhibition at 10 µM [21] was 7%. The inhibition at 10 µM [22] was 2%, the inhibition at 10 µM [23] was -3% and the inhibition at 10 µM [24] was 6%. The inhibition at 10 µM [25] was 3%, the inhibition at 10 µM [26] was -4% and the inhibition at 10 µM [27] was -3%. It also gave an inhibition at 10 µM [28] of 5%, an inhibition at 10 µM [29] of 6% and an inhibition at 10 µM [30] of 8%. It also gave an inhibition at 10 µM [31] of -7%, an inhibition at 10 µM [32] of -2% and an inhibition at 10 µM [33] of 2%. The inhibition at 10 µM [34] was 0%.
